Results: patent US12060387B2, “Polypeptide-based shuttle agents for improving the transduction efficiency of polypeptide cargos to the cytosol of target eukaryotic cells, uses thereof, methods and kits relating to same” (priority 2015, dated 2024)
Where two headings read alike, the source gives them in different places. Where no end group is shown, it is not given here.

Experiments:
[1] = Cell toxicity / % cell viability by flow cytometry (cells in total events v. untreated); type: cell-based, human; settings: human, THP-1 cells, Cell viability (%) (±St. Dev.; n = 3), THP-1; for viability at 15 s, 5 µM: shuttle 5 μM, 15 seconds
[2] = test system: THP-1 cells; test: as above; type: cell-based, human; settings: THP-1, daily 150 min exposure with serum, shuttle 0.8 μM, GFP-NLS 1 μM
[3] = Cell viability (%) by flow cytometry; type: cell-based; settings: GFP-NLS 5 μM, read-out: Cell viability (%) (±St. Dev.; n = 3); for viability at 15 s, 5 µM: Protocol C, shuttle 5 μM, 15 seconds; for viability at 10 s, 35 µM: Protocol B, shuttle 35 μM, 10 seconds
Description: (§1) The ability of the shuttle agent His-CM18-PTD4 to deliver GFP-NLS to the nuclei of different adherent and suspension cells using Protocols B (adherent cells) or C (suspension cells) as described in Example 9.1 was examined. The cell lines tested included: HeLa, Balb3T3, HEK 293T, CHO, NIH3T3, Myoblasts, Jurkat, THP-1, CA46, and HT2 cells, which were cultured as described in Example 1. GFP-NLS (5 μM; see Example 5.1) was co-incubated with 35 μM of His-CM18-PTD4 and exposed to adherent cells for 10 seconds (Protocol B), or was co-incubated with 5 μM of His-CM18-PTD4 and exposed to suspension cells for 15 seconds (Protocol C). […] “Pos cells (%)” is the mean percentages of all cells that emanate a GFP signal.

[4] = Cell viability (%) by flow cytometry; type: cell-based, Chinese hamster; settings: CHO cells, Protocol B, shuttle 35 μM, GFP-NLS 5 μM, 10 seconds, read-out: Cell viability (%) (±St. Dev.; n = 3)
Description: as §1

[5] = test system: HeLa cells; test: Cell toxicity / % cell viability by flow cytometry (cells in total events v. untreated); type: cell-based, Human; settings: HeLa, Protocol B, GFP-NLS 5 μM, 10 seconds
[6] = as above; type: cell-based, Human; settings: human, HeLa cells, HeLa, GFP-NLS 5 μM; for viability at 10 s, 35 µM: shuttle 35 μM; for viability at 10 s, 50 µM: shuttle 50 μM
[7] = Cell viability (%) (±St. Dev.; n = 3), FIG. 22B, Protocol B, 10 seconds, read-out: Cell viability (%) (±St. Dev.; n = 3), FIG. 22B

HHHHHHKWKLFKKIGAVLKVLTTGYARAAARQARA [His-CM18-PTD4]
viability at 1 h, 1 µM ([1]; FIG. 31, Protocol A, shuttle 1 μM, GFP-NLS 5 μM, 1 hour): 96.9 ± 3.6%
viability at 0.5 µM ([1]; FIG. 31, Protocol C, shuttle 0.5 μM, GFP-NLS 5 μM): 82.1 ± 2.7%
viability at 15 s, 5 µM ([1]; FIG. 31, Protocol C, GFP-NLS 5 μM, read-out: Cell viability (%) (±St. Dev.; n = 3), FIG. 31): 64 ± 4.1%
viability at 15 s, 1 µM ([1]; Protocol C, shuttle 1 μM, GFP-NLS 5 μM, incubation time 15 sec, read-out: Cell viability (%) (±St. Dev.; n = 3)): 90 ± 3%
viability at 0.5 min, 1 µM ([1]; Protocol C, shuttle 1 μM, GFP-NLS 5 μM, incubation time 30 sec, read-out: Cell viability (%) (±St. Dev.; n = 3)): 89 ± 1.1%
viability at 1 min, 1 µM ([1]; Protocol C, shuttle 1 μM, GFP-NLS 5 μM, incubation time 60 sec, read-out: Cell viability (%) (±St. Dev.; n = 3)): 85.3 ± 3.6%
viability at 2 min, 1 µM ([1]; Protocol C, shuttle 1 μM, GFP-NLS 5 μM, incubation time 120 sec, read-out: Cell viability (%) (±St. Dev.; n = 3)): 74.3 ± 3.2%
viability at 15 s, 5 µM ([1]; Protocol C, GFP-NLS 5 μM, read-out: Cell viability (%) (±St. Dev.; n = 3)): 64.1 ± 4.5%
viability at 24 h, 0.5 µM ([1]; daily 150 min exposure with serum, shuttle 0.5 μM, GFP-NLS 5 μM, exposure 1 day): 98.2 ± 2.4%
viability at 72 h, 0.5 µM ([1]; daily 150 min exposure with serum, shuttle 0.5 μM, GFP-NLS 5 μM, exposure 3 days): 84.3 ± 3.8%
viability at 24 h, 0.8 µM ([1]; daily 150 min exposure with serum, shuttle 0.8 μM, GFP-NLS 2.5 μM, exposure 1 day, read-out: Cell viability (%) (±St. Dev.; n = 3)): 92.3 ± 1.9%
viability at 72 h, 0.8 µM ([1]; daily 150 min exposure with serum, shuttle 0.8 μM, GFP-NLS 2.5 μM, exposure 3 days, read-out: Cell viability (%) (±St. Dev.; n = 3)): 68.5 ± 2.2%
Cell viability (%) (±St. Dev.; n = 3) ([2]; exposure 1 day): 98.4 ± 6.4%
Cell viability (%) (±St. Dev.; n = 3) ([2]; exposure 3 days): 80.6 ± 4.6%
viability at 15 s, 5 µM ([3]; human, CA46 cells): 71.6 ± 1%
viability at 10 s, 35 µM ([3]; human, HEK 293T cells): 95.3 ± 1.2%
viability at 15 s, 5 µM ([3]; human, Jurkat cells): 73.6 ± 0.7%
viability at 10 s, 35 µM ([3]; human, Myoblasts): 23.5 ± 1.1%
viability at 10 s, 35 µM ([3]; mouse, Balb3T3 cells): 98.4 ± 0.6%
viability at 15 s, 5 µM ([3]; mouse, HT2 cells): 90.6 ± 1.5%
viability at 10 s, 35 µM ([3]; mouse, NIH3T3 cells): 3.3 ± 5.4%
viability at 10 s, 35 µM [4]: 92.8 ± 0.1%
Cell viability (%) (±St. Dev.; n = 3) ([5]; shuttle 35 μM): 94.6 ± 0.4%
Cell viability (%) (±St. Dev.; n = 3), FIG. 29E ([5]; shuttle 50 μM): 92 ± 3.6%
viability at 1 h, 10 µM ([6]; Cell viability (%) (± St. Dev.; n = 3), Protocol A, shuttle 10 μM, 1 hour): 96.4 ± 2.7%
viability at 10 s, 35 µM ([6]; Cell viability (%) (± St. Dev.; n = 3), Protocol B, 10 seconds, read-out: Cell viability (%) (± St. Dev.; n = 3)): 94.6 ± 0.4%
viability at 10 s, 10 µM ([6]; Cell viability (%) (±St. Dev.; n = 3), FIG. 22B, Protocol B, shuttle 10 μM, 10 seconds): 96.3 ± 2.3%
viability at 10 s, 25 µM ([6]; Cell viability (%) (±St. Dev.; n = 3), FIG. 22B, Protocol B, shuttle 25 μM, 10 seconds): 95.3 ± 3.7%
viability at 10 s, 35 µM [6, 7]: 79.6 ± 5.9%
viability at 10 s, 50 µM [6, 7]: 69.2 ± 2.7%
viability at 10 s, 50 µM ([6]; Cell viability (%) (±St. Dev.; n = 3), FIG. 29A, Protocol B, 10 seconds, read-out: Cell viability (%) (±St. Dev.; n = 3), FIG. 29A): 92 ± 3.6%
viability at 1 min, 10 µM ([6]; Cell viability (%) (±St. Dev.; n = 3), FIG. 29B, Protocol B, shuttle 10 μM, incubation 1 min., read-out: Cell viability (%) (±St. Dev.; n = 3), FIG. 29B): 97.6 ± 2.7%
viability at 2 min, 10 µM ([6]; Cell viability (%) (±St. Dev.; n = 3), FIG. 29B, Protocol B, shuttle 10 μM, incubation 2 min., read-out: Cell viability (%) (±St. Dev.; n = 3), FIG. 29B): 80.9 ± 3.2%
viability at 5 min, 10 µM ([6]; Cell viability (%) (±St. Dev.; n = 3), FIG. 29B, Protocol B, shuttle 10 μM, incubation 5 min., read-out: Cell viability (%) (±St. Dev.; n = 3), FIG. 29B): 66.2 ± 4.4%
viability at 1 min, 20 µM ([6]; Cell viability (%) (±St. Dev.; n = 3), FIG. 29I, Protocol B, shuttle 20 μM, 1 minute, read-out: Cell viability (%) (±St. Dev.; n = 3), FIG. 29I): 81.6 ± 4.5%
